Assay: xn = mol fraction of the nth substance listed
Conditions: 101 kPa, Liquid

Cc1cccc(O)c1 [3-methylphenol] + OCCO
Conditions	mass density [kg/m3]	viscosity [mPa·s]
308.15 K, x1 = 0.0998	1088.36	11.72
308.15 K, x1 = 0.1999	1077.36	12.32
308.15 K, x1 = 0.3	1067.31	12.33
308.15 K, x1 = 0.3996	1058.33	11.88
308.15 K, x1 = 0.5	1050.38	11.2
308.15 K, x1 = 0.5967	1043.44	10.37
308.15 K, x1 = 0.7002	1036.6	9.452
308.15 K, x1 = 0.8	1031.15	8.695
308.15 K, x1 = 0.8989	1026.2	8.03
308.15 K, x1 = 1	1021.64	7.701
313.15 K, x1 = 0.0998	1084.66	9.704
313.15 K, x1 = 0.1999	1073.58	10.13
313.15 K, x1 = 0.3	1063.47	10.02
313.15 K, x1 = 0.3996	1054.44	9.673
313.15 K, x1 = 0.5	1046.47	9.067
313.15 K, x1 = 0.5967	1039.51	8.417
313.15 K, x1 = 0.7002	1032.66	7.67
313.15 K, x1 = 0.8	1027.19	7.03
313.15 K, x1 = 0.8989	1022.22	6.496
313.15 K, x1 = 1	1017.63	6.12
318.15 K, x1 = 0.0998	1080.98	8.113
318.15 K, x1 = 0.1999	1069.79	8.371
318.15 K, x1 = 0.3	1059.61	8.275
318.15 K, x1 = 0.3996	1050.55	7.906
318.15 K, x1 = 0.5	1042.56	7.441
318.15 K, x1 = 0.5967	1035.59	6.893
318.15 K, x1 = 0.7002	1028.7	6.322
318.15 K, x1 = 0.8	1023.23	5.853
318.15 K, x1 = 0.8989	1018.22	5.346
318.15 K, x1 = 1	1013.6	5.022
323.15 K, x1 = 0.0998	1077.28	6.869
323.15 K, x1 = 0.1999	1065.98	7.015
323.15 K, x1 = 0.3	1055.75	6.894
323.15 K, x1 = 0.3996	1046.64	6.572
323.15 K, x1 = 0.5	1038.63	6.182
323.15 K, x1 = 0.5967	1031.63	5.763
323.15 K, x1 = 0.7002	1024.74	5.27
323.15 K, x1 = 0.8	1019.25	4.811
323.15 K, x1 = 0.8989	1014.22	4.433
323.15 K, x1 = 1	1009.56	4.158
333.15 K, x1 = 0.0998	1069.86	5.133
333.15 K, x1 = 0.1999	1058.35	5.087
333.15 K, x1 = 0.3	1047.97	4.972
333.15 K, x1 = 0.3996	1038.8	4.817
333.15 K, x1 = 0.5	1030.72	4.45
333.15 K, x1 = 0.5967	1023.71	4.145
333.15 K, x1 = 0.7002	1016.76	3.794
333.15 K, x1 = 0.8	1011.25	3.488
333.15 K, x1 = 0.8989	1006.16	3.219
333.15 K, x1 = 1	1001.44	2.98
343.15 K, x1 = 0.0998	1060.26	3.81
343.15 K, x1 = 0.1999	1048.59	3.82
343.15 K, x1 = 0.3	1038.14	3.72
343.15 K, x1 = 0.3996	1028.9	3.554
343.15 K, x1 = 0.5	1020.81	3.332
343.15 K, x1 = 0.5967	1013.76	3.096
343.15 K, x1 = 0.7002	1006.79	2.858
343.15 K, x1 = 0.8	1001.25	2.635
343.15 K, x1 = 0.8989	996.13	2.426
343.15 K, x1 = 1	991.33	2.231
353.15 K, x1 = 0.0998	1055.21	2.995
353.15 K, x1 = 0.1999	1043.24	2.967
353.15 K, x1 = 0.3	1032.71	2.882
353.15 K, x1 = 0.3996	1023.39	2.734
353.15 K, x1 = 0.5	1015.21	2.566
353.15 K, x1 = 0.5967	1008.1	2.401
353.15 K, x1 = 0.7002	1001.08	2.237
353.15 K, x1 = 0.8	995.5	2.048
353.15 K, x1 = 0.8989	990.32	1.901
353.15 K, x1 = 1	985.42	1.759

Source: the NIST ThermoML archive (doi:10.1021/je0504156)
